Data as given in PMC4138103 (PLoS ONE, 2014).

Tested on: Sprague-Dawley rats
Assay: Hematology
Assay type: in vivo, Rattus norvegicus
Design: key to Dose response, MCH / Dose response, MCHC / Dose response, PLT / Dose response, MCV: D: significant dose response (for results, see Table 2); T: significant trend; HCT, Hematocrit: unit not given here
Details: males; for MCH, Mean corpuscular hemoglobin / MCHC, Mean corpuscular hemoglobin concentration / MCV, Mean corpuscular volume / MPV, Mean platelet volume / Monocytes / Neutrophils / PDW, Platelet distribution width / PLT, Platelet count / RBC, Red cell count / WBC, Leukocyte total count / Basophils / Eosinophils / HB, Hemoglobin / Lymphocytes / HCT, Hematocrit: group mean
Description: Basic blood picture analysis was carried out using Advia 120 analyzer (Bayer, later Siemens Diagnostic Division, Dublin, Ireland). This analysis includes red cell count (RBC), hemoglobin (HB), hematocrit (HCT), platelet count (PLT), leukocyte total count (WBC) and differential count as well as the calculated red cell and platelet parameters mean corpuscular volume (MCV), mean corpuscular hemoglobin (MCH), mean corpuscular hemoglobin concentration (MCHC), red cell distribution width - standard deviation (RDW-SD), platelet distribution width (PDW) and mean platelet volume (MPV). Blood cell counting is based on isovolumetric sphering and fixing the cells, stains and light scattering. Visual leukocyte differential counting was done after May-Grünwald-Giemsa staining.
Data were also analyzed using the BMD method, which is based on dose-response modeling of the full data set using a nested family of exponential and Hill models. The analyses were done on data of males and females combined, using sex as a covariate. […] In that case, different Critical Effect Doses (CEDs) and CEDs at the lowest bound of the confidence interval (CED-L) were generated for each sex. If no difference between sexes is detected, a CED and CED-Ls for the combined data is generated. However, this was also done if the curve fits are close, and separate analyses for males and females were then performed manually. CEDs and CED-Ls were calculated at the predefined Critical Effect Size (CES) of 5% (EFSA standard) or 10%.

[1] = total dose 300 mg/kg bw, N=5, p<0.01 vs. control
[2] = total dose 1000 mg/kg bw, N=5, p<0.001 vs. control
[3] = total dose 1700 mg/kg bw, N=5, p<0.001 vs. control

For `Clc1cc(Cl)c(-c2cc(Cl)c(Cl)c(Cl)c2Cl)cc1Cl` [PCB 180, 2,2′,3′,4,4′,5,5′-heptachlorobiphenyl], the “MCH, Mean corpuscular hemoglobin” value (total dose 100 mg/kg bw, N=5) was 22.18 pg, the “MCHC, Mean corpuscular hemoglobin concentration” value (total dose 100 mg/kg bw, N=5) was 352 g/L and the “MCV, Mean corpuscular volume” value (total dose 100 mg/kg bw, N=5) was 63.1 fL. For the same compound, the “MPV, Mean platelet volume” value (total dose 100 mg/kg bw, N=5) was 7.28 fL, the Monocytes (total dose 100 mg/kg bw, N=5) was 4.4% and the Neutrophils (total dose 100 mg/kg bw, N=5) was 7.2%. The “PDW, Platelet distribution width” value (total dose 100 mg/kg bw, N=5) was 7.90 fL, the “PLT, Platelet count” value (total dose 100 mg/kg bw, N=5) was 8.93e+11 L⁻¹ and the “RBC, Red cell count” value (total dose 100 mg/kg bw, N=5) was 7.65e+12 L⁻¹. For the same compound, the “WBC, Leukocyte total count” value (total dose 100 mg/kg bw, N=5) was 1.654e+10 L⁻¹, the Basophils (total dose 300 mg/kg bw, N=5) was 0.0% and the Eosinophils (total dose 300 mg/kg bw, N=5) was 1.0%. For the same compound, the “HB, Hemoglobin” value (total dose 300 mg/kg bw, N=5) was 165 g/L, the Lymphocytes (total dose 300 mg/kg bw, N=5) was 85.8% and the “MCH, Mean corpuscular hemoglobin” value (total dose 300 mg/kg bw, N=5) was 22.38 pg. For the same compound, the “MCHC, Mean corpuscular hemoglobin concentration” value (total dose 300 mg/kg bw, N=5) was 351 g/L, the “MCV, Mean corpuscular volume” value (total dose 300 mg/kg bw, N=5) was 63.8 fL and the “MPV, Mean platelet volume” value (total dose 300 mg/kg bw, N=5) was 7.12 fL. The Monocytes (total dose 300 mg/kg bw, N=5) was 5.2%, the Neutrophils (total dose 300 mg/kg bw, N=5) was 8.0% and the “PDW, Platelet distribution width” value (total dose 300 mg/kg bw, N=5) was 7.66 fL. The “PLT, Platelet count” value (total dose 300 mg/kg bw, N=5) was 9.4e+11 L⁻¹, the “WBC, Leukocyte total count” value (total dose 300 mg/kg bw, N=5) was 2.076e+10 L⁻¹ and the “HCT, Hematocrit” value [1] was 0.47. For the same compound, the “RBC, Red cell count” value [1] was 7.38e+12 L⁻¹, the Basophils (total dose 1000 mg/kg bw, N=5) was 0.0% and the Eosinophils (total dose 1000 mg/kg bw, N=5) was 1.0%. The Lymphocytes (total dose 1000 mg/kg bw, N=5) was 86.8%, the “MCH, Mean corpuscular hemoglobin” value (total dose 1000 mg/kg bw, N=5) was 22.94 pg and the “MCV, Mean corpuscular volume” value (total dose 1000 mg/kg bw, N=5) was 63.2 fL. The “MPV, Mean platelet volume” value (total dose 1000 mg/kg bw, N=5) was 7.04 fL, the Monocytes (total dose 1000 mg/kg bw, N=5) was 3.6% and the Neutrophils (total dose 1000 mg/kg bw, N=5) was 8.6%. The “PDW, Platelet distribution width” value (total dose 1000 mg/kg bw, N=5) was 7.60 fL, the “PLT, Platelet count” value (total dose 1000 mg/kg bw, N=5) was 8.85e+11 L⁻¹ and the “WBC, Leukocyte total count” value (total dose 1000 mg/kg bw, N=5) was 1.798e+10 L⁻¹. For the same compound, the “HCT, Hematocrit” value [2] was 0.44, the “RBC, Red cell count” value [2] was 6.99e+12 L⁻¹ and the “MCHC, Mean corpuscular hemoglobin concentration” value (total dose 1000 mg/kg bw, N=5, p<0.01 vs. control) was 364 g/L. For the same compound, the “HB, Hemoglobin” value (total dose 1000 mg/kg bw, N=5, p<0.05 vs. control) was 161 g/L, the Basophils (total dose 1700 mg/kg bw, N=5) was 0.4% and the Eosinophils (total dose 1700 mg/kg bw, N=5) was 0.4%. For the same compound, the Lymphocytes (total dose 1700 mg/kg bw, N=5) was 87.2%, the “MCH, Mean corpuscular hemoglobin” value (total dose 1700 mg/kg bw, N=5) was 22.78 pg and the “MCHC, Mean corpuscular hemoglobin concentration” value (total dose 1700 mg/kg bw, N=5) was 355 g/L. The “MCV, Mean corpuscular volume” value (total dose 1700 mg/kg bw, N=5) was 64.2 fL, the “MPV, Mean platelet volume” value (total dose 1700 mg/kg bw, N=5) was 7.08 fL and the Monocytes (total dose 1700 mg/kg bw, N=5) was 5.4%. For the same compound, the Neutrophils (total dose 1700 mg/kg bw, N=5) was 6.6%, the “PDW, Platelet distribution width” value (total dose 1700 mg/kg bw, N=5) was 7.54 fL and the “PLT, Platelet count” value (total dose 1700 mg/kg bw, N=5) was 9.37e+11 L⁻¹. The “WBC, Leukocyte total count” value (total dose 1700 mg/kg bw, N=5) was 1.68e+10 L⁻¹, the “HCT, Hematocrit” value [3] was 0.45 and the “RBC, Red cell count” value [3] was 6.99e+12 L⁻¹. For the same compound, the “HB, Hemoglobin” value (total dose 1700 mg/kg bw, N=5, p<0.01 vs. control) was 159 g/L, the “Dose response, HB” value (total doses 0-1700 mg/kg bw) was “D, T” and the “Dose response, HCT” value (total doses 0-1700 mg/kg bw) was “D, T”. For the same compound, the “Dose response, MCH” value (total doses 0-1700 mg/kg bw) was “T”, the “Dose response, MCHC” value (total doses 0-1700 mg/kg bw) was “T” and the “Dose response, PLT” value (total doses 0-1700 mg/kg bw) was “T”. For the same compound, the “Dose response, RBC” value (total doses 0-1700 mg/kg bw) was “D, T”, the “Hematocrit, CED” value (CES 5%, total dose based) was 140 mg/kg bw and the “Hematocrit, CED-L” value (CES 5%, total dose based) was 66.3 mg/kg bw. The “Hemoglobin, CED” value (CES 5%, total dose based) was 201 mg/kg bw, the “Hemoglobin, CED-L” value (CES 5%, total dose based) was 62.8 mg/kg bw and the “Platelet count, CED” value (CES 5%, total dose based) was 40.7 mg/kg bw. The “Platelet count, CED-L” value (CES 5%, total dose based) was 9.68 mg/kg bw, the “Red blood cell count, CED” value (CES 5%, total dose based) was 138 mg/kg bw and the “Red blood cell count, CED-L” value (CES 5%, total dose based) was 82.2 mg/kg bw. For the same compound, the “Hematocrit, CED” value (CES 10%, total dose based) was 481 mg/kg bw, the “Platelet count, CED” value (CES 10%, total dose based) was 143 mg/kg bw and the “Red blood cell count, CED” value (CES 10%, total dose based) was 436 mg/kg bw. The “Red blood cell count, CED-L” value (CES 10%, total dose based) was 252 mg/kg bw and the “RBC, CED” value (adipose tissue concentration based) was 598 µg/g lipid.
